Reference: US20230263164A1 (priority 2020, published 2023)
Counter-ions that a name gives are not always drawn. Like-named read-outs stand apart in the source and are kept apart here.

Assays:
[1] = 90% H2O/D2O; for Percent Degradation: 31P NMR
[2] = format: physicochemical
[3] = not given; remark: listed apart in the source
physchem = details: buffer, t1/2 (days) of first step
corn plants = format: in vivo
people = details: cited from earlier work
soybeans = assay: Field trial: harvest yield of soybeans; format: in vivo; details: 2 kg (per acre), side dressing, vs plants not exposed
From the text: All essential plant nutrients (N, P, K, and S) were applied in non-limiting amounts. Prior to planting soybeans, the fields were fertilized with 60 lb acre of P2O5, 80 lb per acre of K2O, and 20 lb per acre of sulfur. The soybean seeds were a 2.8-3.2 relative maturity planted at 120,000 to 140,000 seeds per acre. All field management were designed to effectively control weed and insect pests to optimize soybean growth and yield. The soybeans were planted and either 0, 0.5, 1.0, or 2.0 kg per acre of dibutyldithiophosphate was applied as a side dressing to the soybean plants. The dibutyldithiophosphate was dissolved in water and applied. The harvest weight was determined for each plot and corrected for slight differences in moisture content.

pea plants = assay: Growth of peas exposed to dibutyldithiophosphate (pots, 88 days); format: in vivo
Method: Peas were planted and grown in 8.25 inch TEKU pots. The pots were packed finger tight with potting mix #4 from Beautiful Land Products. The pea seeds were planted approximately 1.5 inches deep. 25 seeds were planted per dosing of dibutyldithiophosphate potassium salt. After the seeds were planted into the soil the desired amount of dibutyldithiophosphate for 32 doses was added to 160 mL of tap water. After mixing well for 10 minutes, 5 mL of the dibutyldithiophosphate solution was then added to the top of each seed after it was planted in the soil. Soil was then used to cover the seed. After adding the salt, the plants were moved outside in full sunlight until harvest. The pea plants were watered daily. Peter's Professional B 20-20-20 water soluble fertilizer was used at 1 tablespoon per 3 gallons of tap water and 350 mL of this solution was added to each plant. Plants were fertilized on day 44, 51, 66, 73, and 81.
The pea plants were harvested after 88 days. The plant was harvested by cutting the above soil portion of the plant at the root-stem boundary. The above ground portion of the plant was weighed in its entirety. Next the pods were removed, counted and weighed separately from the rest of the plant. Statistical analysis was performed using IBM SPSS Statistics 25. Dunnett's 2-sided t-test was performed to determine significance. Data represented are mean±standard error with ** indicating α<0.05 and * indicating α<0.1.

lettuce plants = details: in vivo; cited from earlier work
peas = details: in vivo; cited from earlier work
radish = details: cited from earlier work
[4] = 85° C., 90% H2O/D2O, only phosphoric acid observed
[5] = hydrolysis, rate constants 25 to 85° C.
[6] = water buffered at pH 6.7, FIG. 4
[7] = 20 mg per plant, potassium salt, 88 days

CC(C)(C)OP(=S)(S)OC(C)(C)C [Example 8, di(tert-butanol)dithiophosphate Sodium Salt]
hydrolysis after 30 days ([1]; room temperature, 30 days): completely hydrolyzed
Percent Degradation ([1]; 30 days, room temperature): 100%
percent degraded ([1]; day 12, room temperature): 62%
percent degraded ([1]; day 20, room temperature): 88%
Rate of first-step of hydrolysis (85° C.) (85° C., 90% H2O/D2O): 13.2 h⁻¹
Time to complete hydrolysis [4]: 0.0493 days
rate of hydrolysis, fold slower at room temperature than at 85° C. (room temperature vs 85° C.): 2,600 ×
Rate of first-step of hydrolysis (room temperature, 90% H2O/D2O): 0.0051 h⁻¹
Time to complete hydrolysis (room temperature, 90% H2O/D2O): 30 days
ΔG^‡ (25° C.) ([2]; 25° C.): 25.26 kcal/mol
−TΔS^‡ (25° C.) ([2]; 25° C.): -2.58 kcal/mol
ΔΔG^‡ ([2]; 25° C. vs 85° C.): 0.526 kcal/mol
ΔG^‡ (85° C.) ([2]; 85° C.): 24.74 kcal/mol
sign of ΔS^‡ (in words) ([2]; hydrolysis): positive
ΔH^‡ [2, 5]: 27.84 kcal/mol
ΔS^‡ [2, 5]: 36.3 J/mol · K
release of H2S (rank among the dithiophosphates) [3, 6]: highest release of H2S

S=P(S)(Sc1ccccc1)Sc1ccccc1 [Example 13]
half-life (physchem): 31.2 h

S=P1(S)OCCS1 (stereo not drawn) [Example 14]
release of H2S (rank among the dithiophosphates) ([3]; pH 6.7): highest release of H2S

CCc1ccc(OP(=S)([S-])Oc2ccc(CC)cc2)cc1.[K+] [Example 6]
half-life (physchem): 93.6 h

S=P1(S)SCCS1 [Example 11]
half-life (physchem): 2.04 h

S=P1(S)OCCO1 [Example 2]
half-life (physchem): 204 h

CCCCOP(=S)(S)OCCCC [Example 1, Dibutyldithiophosphate Ammonium Salt]
Percent Degradation ([1]; 30 days, room temperature): <3%
Rate of first-step of hydrolysis (85° C.) (85° C., 90% H2O/D2O): 0.00096 h⁻¹
Time to complete hydrolysis [4]: 180 days
rate of hydrolysis, fold slower than the compound of Example 2 (85° C., Table 2): 3.5 ×
rate of hydrolysis, fold slower than the dithiophosphate of Example 3 (85° C., Table 2): 7.4 ×
rate of hydrolysis, fold slower than the dithiophosphate of Example 4 (85° C., Table 2): 1.4 ×
release of H2S (rank among the dithiophosphates) [3, 6]: lowest release of H2S
increase in weight of corn plants (corn plants; 1 mg ammonium salt added to soil adjacent to seed, 4 weeks, vs plants grown without): 39%

S [Example H2S, hydrogen sulfide]
level in the air that can lead to negative health effects (headaches, breathing problems in asthma) (people; exposure in the air): 2 ppm
level immediately dangerous to life and health (people; exposure): 100 ppm

CCCCOP(=S)(S)OCCCC [dibutyldithiophosphate]
increase in harvest yield of soybeans (soybeans): 4.4%
number of pods, plant weight and total pod weight (pea plants; 10 mg per plant, potassium salt, 88 days): statistically significant increase
increase in number of pods (pea plants; [7]): 55%
increase in plant weight (pea plants; [7]): 46%
increase in total pod weight (pea plants; [7]): 45%
germination compared to the control plants (pea plants; 150 mg and 500 mg, potassium salt): reduction in germination
number of plants germinating (pea plants; 150 mg, 25 seeds planted per dosing): 6 plants
germination of seeds (pea plants; 500 mg): None of the seeds
heights of corn plants (corn plants; in vivo): Little statistically significant difference
weight of corn plants (corn plants; in vivo): improvements in weights
weight of corn plants (significance) (corn plants; in vivo): statistically significant improvements

CC(C)[C@@H]1CC[C@@H](C)C[C@H]1OP(=S)([S-])O[C@@H]1C[C@H](C)CC[C@H]1C(C)C.[K+] [Example 5]
release of H2S ([3]; pH 6.7): released H2S

S=P1(S)SCCCS1 [Example 12]
half-life (physchem): 36 h

CCCSP(=S)(S)SCCC [Example 10]
half-life (physchem): 3.12 h

C1COCCN1.COc1ccc(P(=S)(S)N2CCOCC2)cc1 (stereo not drawn) [GYY-4137]
growth of lettuce plants (lettuce plants): increased the growth
growth of pea plants (peas): increased the growth
growth of radish plants (radish; in vivo): increased the growth
harvest yield of radishes (radish; milligram loadings): doubled

CC1COP(=S)([S-])O1.[K+] (stereo not drawn) [Example 3]
half-life (physchem): 98.4 h
